{
  "source": "paper PMC11027065",
  "about": "(Analytical chemistry, 2020)",
  "molecular_target": "T1, insulin-regulated aminopeptidase (IRAP, EC 3.4.11.3) (Rattus norvegicus, UniProt P97629)",
  "T1 sequence (P97629 1-1025)": "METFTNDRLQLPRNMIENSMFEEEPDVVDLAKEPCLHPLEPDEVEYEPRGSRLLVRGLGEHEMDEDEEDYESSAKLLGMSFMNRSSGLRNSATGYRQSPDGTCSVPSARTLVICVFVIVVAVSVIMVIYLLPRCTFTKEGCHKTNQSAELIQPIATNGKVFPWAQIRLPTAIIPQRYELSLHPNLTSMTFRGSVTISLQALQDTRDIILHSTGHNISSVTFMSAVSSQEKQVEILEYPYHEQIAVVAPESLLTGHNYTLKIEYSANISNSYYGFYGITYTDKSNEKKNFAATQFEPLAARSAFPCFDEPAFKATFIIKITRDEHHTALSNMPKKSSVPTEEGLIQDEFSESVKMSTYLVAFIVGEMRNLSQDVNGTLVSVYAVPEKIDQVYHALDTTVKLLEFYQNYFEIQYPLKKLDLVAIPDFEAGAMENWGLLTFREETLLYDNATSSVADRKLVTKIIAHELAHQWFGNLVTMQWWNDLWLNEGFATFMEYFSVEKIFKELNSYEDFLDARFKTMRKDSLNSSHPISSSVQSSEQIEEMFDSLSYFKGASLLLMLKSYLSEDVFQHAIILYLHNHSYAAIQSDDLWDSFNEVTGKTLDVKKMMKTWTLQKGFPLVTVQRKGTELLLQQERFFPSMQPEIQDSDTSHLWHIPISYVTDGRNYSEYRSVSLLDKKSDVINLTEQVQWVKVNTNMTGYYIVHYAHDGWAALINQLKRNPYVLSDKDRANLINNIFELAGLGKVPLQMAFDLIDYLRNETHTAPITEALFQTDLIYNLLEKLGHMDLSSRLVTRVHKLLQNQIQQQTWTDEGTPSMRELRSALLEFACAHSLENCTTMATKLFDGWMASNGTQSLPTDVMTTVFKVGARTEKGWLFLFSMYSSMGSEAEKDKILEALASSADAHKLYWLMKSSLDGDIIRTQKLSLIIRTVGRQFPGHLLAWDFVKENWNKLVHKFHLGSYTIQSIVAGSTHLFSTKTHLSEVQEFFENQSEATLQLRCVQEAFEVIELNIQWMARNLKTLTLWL",
  "test": "EOP-MD probe with cLC-MS2: effect of HFI-419 on LE hydrolysis in vivo",
  "details": "50 μM HFI-419; GGFL detected without inhibitor; data not shown",
  "data": [
    {"smiles": "CCOC(=O)C1=C(NC(C)=O)Oc2cc(O)ccc2C1c1cccnc1", "note": "(stereo not shown) [HFI-419]", "values": [
      {"measurement": "product GGFL in dialysate during infusion of inhibitor", "value": "undetected"}
    ]}
  ]
}
